Experimental data reported in ChEMBL document CHEMBL1201862, “PubChem BioAssay data set” (2004).
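48-hour exposure; five concentrations; linearly interpolated endpoints. The concentration for 50% growth inhibition is given as GI50.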 The source made the active and inactive calls. No stated cut-off is given here; in the data, active = GI50 up to about 1.1 µM and inactive = higher.

Assays:
Assay in all cases: DTP human tumour cell line panel, 48 h
HL-60 = system: HL-60
PC-3 = system: PC-3
MDA-MB-231 = system: MDA-MB-231
SN12C = system: SN12C
MCF7 = system: MCF7
SNB-19 = system: SNB-19
KM12 = system: KM12
CAKI-1 = system: CAKI-1
SF-268 = system: SF-268
SK-MEL-28 = system: SK-MEL-28
HOP-92 = system: HOP-92
T47D = system: T47D
EKVX = system: EKVX
IGROV-1 = system: IGROV-1
COLO 205 = system: COLO 205
NCI/ADR-RES = system: NCI/ADR-RES
K562 = system: K562
OVCAR-4 = system: OVCAR-4
HT-29 = system: HT-29
SNB-78 = system: SNB-78

Measured: GI50

O=C1OCC2=C1C(c1ccc(Cl)cc1)c1cc3c(cc1O2)OCO3 (stereo not drawn)
inactive: HL-60 2.21 µM | PC-3 3.62 µM | MDA-MB-231 > 24.3 µM | SN12C 10.5 µM | MCF7 3.16 µM | SNB-19 6.97 µM | KM12 3.45 µM | CAKI-1 1.66 µM | SF-268 7.43 µM | SK-MEL-28 6.21 µM | HOP-92 > 35.8 µM | T47D 4.3 µM | EKVX 21 µM | IGROV-1 3.56 µM | COLO 205 5.55 µM | NCI/ADR-RES 2.64 µM | K562 1.82 µM | OVCAR-4 84.9 µM | HT-29 3.72 µM

O=c1cc(/C=C/c2ccccc2)c2ccc(O/C(=C\c3ccccc3)c3nc4ccccc4c(=O)o3)cc2o1
inactive: HL-60 12.7 µM | SNB-78 19.5 µM | SN12C 26.3 µM | SNB-19 26 µM | KM12 15.7 µM | CAKI-1 25.7 µM | SF-268 11.8 µM | SK-MEL-28 13.8 µM | HOP-92 15.7 µM | EKVX 23.7 µM | IGROV-1 30.1 µM | COLO 205 22.2 µM | K562 10.8 µM | OVCAR-4 27.2 µM

CN1C(=O)CC2(C)c3cc(C=O)ccc3N(C)C12 (stereo not drawn)
inactive: SNB-78 > 100 µM | SN12C > 100 µM | SNB-19 > 100 µM | KM12 > 100 µM | SF-268 > 100 µM | SK-MEL-28 > 100 µM | HOP-92 > 100 µM | EKVX > 100 µM | IGROV-1 > 100 µM | COLO 205 > 100 µM | K562 > 100 µM | OVCAR-4 > 100 µM | HT-29 > 100 µM

CCCCc1c2c(nc3c1CCCC3O)/C(=C/c1ccccc1)CCC2 (stereo not drawn)
inactive: HL-60 17.3 µM | SNB-78 56 µM | SN12C 23.2 µM | SNB-19 43.1 µM | KM12 18.7 µM | SF-268 31.3 µM | SK-MEL-28 33.5 µM | HOP-92 38.7 µM | EKVX 29.6 µM | IGROV-1 45.8 µM | COLO 205 17.9 µM | K562 11.4 µM | OVCAR-4 63.7 µM | HT-29 22.1 µM

COC(=O)C(=O)C(C(=O)C(=O)Nc1ccc(Cl)cc1C)c1nc2ccc(C(=O)c3ccccc3)cc2nc1O (stereo not drawn)
inactive: HL-60 96.6 µM | SNB-78 > 100 µM | SN12C > 100 µM | SNB-19 > 100 µM | KM12 63 µM | CAKI-1 68.4 µM | SF-268 > 100 µM | HOP-92 49.8 µM | EKVX > 100 µM | IGROV-1 > 100 µM | COLO 205 > 100 µM | K562 29 µM | OVCAR-4 > 100 µM | HT-29 > 100 µM

CCOC(=O)NC(=O)c1cn(CCCCCOC(=O)NCCCCCCNC(=O)OCCCCCn2cc(C(=O)NC(=O)OCC)c(=O)[nH]c2=O)c(=O)[nH]c1=O
inactive: HL-60 > 100 µM | SNB-78 > 100 µM | SN12C > 100 µM | SNB-19 > 100 µM | KM12 > 100 µM | CAKI-1 > 100 µM | SF-268 > 100 µM | SK-MEL-28 > 100 µM | EKVX > 100 µM | IGROV-1 > 100 µM | COLO 205 > 100 µM | K562 > 100 µM | OVCAR-4 > 100 µM | HT-29 > 100 µM

O=C(O)C1=C(C(=O)O)Oc2ccccc2O1
inactive: HL-60 > 100 µM | SNB-78 > 100 µM | SN12C > 100 µM | SNB-19 > 100 µM | KM12 > 100 µM | CAKI-1 > 100 µM | SF-268 > 100 µM | SK-MEL-28 > 100 µM | HOP-92 > 100 µM | EKVX > 100 µM | IGROV-1 > 100 µM | COLO 205 > 100 µM | K562 > 100 µM | OVCAR-4 > 100 µM | HT-29 > 100 µM

CC(=O)c1ccc(NC(=O)C(=O)CC(=O)c2sc(-n3nc(-c4ccccc4)cc3-c3ccccc3)nc2C)cc1
inactive: HL-60 > 100 µM | SNB-78 > 100 µM | SN12C > 100 µM | SNB-19 > 100 µM | KM12 > 100 µM | CAKI-1 > 100 µM | SF-268 > 100 µM | EKVX > 100 µM | IGROV-1 > 100 µM | COLO 205 > 100 µM | K562 > 100 µM | OVCAR-4 > 100 µM | HT-29 > 100 µM

CN1Nc2ccccc2CC1=O
inactive: SNB-78 > 100 µM | SN12C > 100 µM | SNB-19 > 100 µM | KM12 > 100 µM | CAKI-1 > 100 µM | SF-268 > 100 µM | SK-MEL-28 > 100 µM | HOP-92 > 100 µM | EKVX > 100 µM | IGROV-1 > 100 µM | COLO 205 > 100 µM | K562 > 100 µM | OVCAR-4 > 100 µM | HT-29 > 100 µM

Cc1ccc(S(=O)(=O)NNC(=O)c2sc(-c3nc(C)c(C(=O)NNS(=O)(=O)c4ccc(C)cc4)s3)nc2C)cc1
inactive: HL-60 48.5 µM | SNB-78 > 100 µM | SN12C > 100 µM | SNB-19 > 100 µM | KM12 > 100 µM | CAKI-1 24 µM | SF-268 > 100 µM | SK-MEL-28 > 100 µM | HOP-92 31 µM | EKVX > 100 µM | IGROV-1 > 100 µM | COLO 205 > 100 µM | K562 45.9 µM | HT-29 57.3 µM

COC(=O)[C@]1(C)C(OC)=CC(=O)C2C1[C@H]1CCC[C@@H]21 (stereo partly drawn)
inactive: HL-60 > 100 µM | SNB-78 > 100 µM | SN12C > 100 µM | SNB-19 > 100 µM | KM12 > 100 µM | CAKI-1 > 100 µM | SF-268 > 100 µM | SK-MEL-28 > 100 µM | HOP-92 > 100 µM | EKVX > 100 µM | IGROV-1 > 100 µM | COLO 205 > 100 µM | K562 > 100 µM | HT-29 > 100 µM

Cc1cc2c(c(C(N)=O)c1C)-c1cccc(F)c1C2=O
inactive: SNB-78 > 100 µM | SN12C > 100 µM | SNB-19 > 100 µM | KM12 > 100 µM | SF-268 > 100 µM | SK-MEL-28 > 100 µM | HOP-92 > 100 µM | EKVX > 100 µM | IGROV-1 > 100 µM | COLO 205 > 100 µM | K562 > 100 µM | OVCAR-4 > 100 µM | HT-29 > 100 µM

CCN(CC)CCNc1ccc2ncn3c4ccccc4c(=O)c1c23
inactive: HL-60 5.74 µM | SNB-78 3.03 µM | SN12C 5.36 µM | SNB-19 9.84 µM | KM12 5.2 µM | CAKI-1 2.06 µM | SF-268 3.99 µM | SK-MEL-28 4.12 µM | HOP-92 2.28 µM | IGROV-1 3.83 µM | COLO 205 1.87 µM | K562 8.49 µM | OVCAR-4 2.96 µM | HT-29 2.2 µM

Cc1ccc(-c2cc(=O)c3cc(C)c(C)c(C(=O)O)c3o2)cc1C
inactive: HL-60 > 100 µM | SNB-78 > 100 µM | SN12C > 100 µM | SNB-19 > 100 µM | KM12 > 100 µM | CAKI-1 28.4 µM | SK-MEL-28 > 100 µM | HOP-92 > 100 µM | EKVX > 100 µM | IGROV-1 > 100 µM | COLO 205 > 100 µM | K562 > 100 µM | OVCAR-4 > 100 µM | HT-29 > 100 µM

Cc1nc2nn(Cc3ccccc3)cc2c(=O)o1
inactive: HL-60 > 100 µM | SNB-78 > 100 µM | SN12C > 100 µM | SNB-19 > 100 µM | KM12 > 100 µM | SF-268 > 100 µM | EKVX > 100 µM | IGROV-1 > 100 µM | COLO 205 > 100 µM | K562 > 100 µM | HT-29 > 100 µM

COC(=O)CCC(=O)Nc1cc(Cl)ccc1Cl
inactive: HL-60 > 100 µM | SNB-78 > 100 µM | SN12C > 100 µM | SNB-19 > 100 µM | KM12 > 100 µM | CAKI-1 > 100 µM | SF-268 > 100 µM | SK-MEL-28 > 100 µM | HOP-92 > 100 µM | EKVX > 100 µM | IGROV-1 > 100 µM | K562 > 100 µM | OVCAR-4 > 100 µM | HT-29 > 100 µM

CC1c2c(Cl)nc3ccccc3c2Oc2c1c(Cl)nc1ccccc21
inactive: HL-60 29.6 µM | SNB-78 > 100 µM | SNB-19 > 100 µM | KM12 > 100 µM | SF-268 > 100 µM | SK-MEL-28 > 100 µM | HOP-92 46.5 µM | EKVX 37.6 µM | IGROV-1 > 100 µM | COLO 205 > 100 µM | K562 46.8 µM | HT-29 82.8 µM

O=C(N/N=C/c1ccccc1O)N/N=C/c1ccccc1O
inactive: HL-60 > 100 µM | SNB-78 > 100 µM | SN12C > 100 µM | SNB-19 > 100 µM | SF-268 > 100 µM | SK-MEL-28 > 100 µM | HOP-92 > 100 µM | EKVX > 100 µM | IGROV-1 > 100 µM | COLO 205 > 100 µM | K562 > 100 µM | OVCAR-4 > 100 µM | HT-29 > 100 µM

COc1cc2c(cc1-c1coc3cc(O)ccc3c1=O)OCO2 [CUNEATIN]
inactive: HL-60 > 100 µM | PC-3 43 µM | MDA-MB-231 > 10 µM | SN12C 25.4 µM | MCF7 35.3 µM | SNB-19 19.5 µM | KM12 33.3 µM | CAKI-1 24 µM | SF-268 19.3 µM | SK-MEL-28 45.8 µM | HOP-92 29 µM | T47D 29.6 µM | EKVX 34.4 µM | IGROV-1 22.9 µM | COLO 205 > 100 µM | NCI/ADR-RES 21.8 µM | K562 > 100 µM | OVCAR-4 19.8 µM | HT-29 99.3 µM
